Experimental data: US9981043B2, “Analgesic conjugates” (priority 2013, dated 2018)
Values joined by “and” are separate entries in the source; they are usually repeats but may differ in a detail not shown here. Equal entries are not always repeated. “Also recorded” adds a separate entry of the source.

Legend:
control mice = assay: Radiant tail flick antinociception, control (not pretreated) mice; format: in vivo
Experimental: Compounds were dissolved in 10% DMSO and then diluted to less than 1% DMSO in the test solutions. […] Compounds were administered in a 5-μl volume in conscious mice, either i.c.v. (Haley T J & McCormick W G, Br J Pharmacol Chemother, 1957, 12(1), 12-15) or i.t. (Hylden J L K & Wilcox G L, Eur. J. Pharmacol., 1980, 67(2-3), 313-316). Peak times were determined by comparing the percent maximal possible effect (% MPE) at 5, 10, 20 and 60 minutes after injection.
The tail flick assay is used first to test for antinociception as described by D'Amour and Smith (D'AMOUR FE & SMITH DL (1941) J. Pharmacol. Exp. Ther. 72(1):74-79) and modified by Dewey et al. (Dewey W L, Harris L S, Howes J F, & Nuite JA (1970) J. Pharmacol. Exp. Ther. 175(2):435-442). For the measurement of the tail-flick latency, mice are wrapped in a light cloth and held gently in one hand with the tail positioned in the apparatus (Tail Flick Analgesia Meter, Columbus Instruments, Columbus, Ohio) for radiant heat stimulus. The tail-flick response is elicited by applying radiant heat to the dorsal side of the tail. The intensity of the heat is set so that the mouse flicks its tail within 2 to 3 seconds. The test latency is measured before drug treatment (control) and again after the drug treatment (test) at the peak time of the compound; a 10 second maximum cut-off time is used to prevent damage to the tail. Antinociception is quantified according to the Harris L S & Pierson A K, J. Pharmacol. Exp. Ther., 1964, 143(2):141-148, as the percent maximal possible effect (% MPE), which is calculated as: % MPE=(Test−Control/10−Control)×100.
At least three groups of four to ten mice are used for each dose response curve. ED50 values with 95% confidence intervals (C.I.) are computed with GraphPad Prism 4 by using nonlinear regression methods.

[1] = test system: C3H mice with bone cancer; assay: von Frey mechanical hyperalgesia, bone cancer (fibrosarcoma) mice; format: in vivo
Experimental: The mouse hind paw model of bone cancer was the third model of pain (Wacnik P W, et al., Pain Research & Management, 2000, 16, 615-637; and Wacnik P W, et al., J Neurosci, 2001, 21(23), 9355-9366). Cell Culture: National Collection of Type Cultures (NCTC) clone 2472 fibrosarcoma cells, originally derived from a connective tissue tumor in a C3H mouse, were obtained from the American Type Cell Culture Collection (Rockville, Md.). Cells were grown and maintained in accordance with standard cell culturing techniques. NCTC cells were grown to 80-90% confluence in 75 cm^2 flasks (Corning, Lowell, Mass.) in Dulbecco's Modification of Eagles Medium (Invitrogen, Carlsbad, Calif.) fortified with 10% Horse Serum and sodium bicarbonate. Cell cultures were housed in a water-jacketed incubator with 5% carbon dioxide at 37° C.
Cells were prepared for implantation by first pouring off the culture medium and washing with phosphate-buffered saline (PBS). Trypsin was added to flask and placed in incubator for 3 minutes. Upon detachment, cells were suspended in an ample amount of culture medium to terminate enzymatic activity and centrifuged for 10 min at 1000 g. Fibrosarcoma cells were re-suspended in a known amount of PBS for counting, quantified on a hemacytometer, pelleted and re-suspended in PBS. Fibrosarcoma cells were again re-suspended to a final concentration of 2×10^5 cells in 20 μl. Initially, animals were anesthetized in a plexi-glass chamber using 3% isoflurane in 3 L/min oxygen. Once each mouse was completely anesthetized, a maintenance rate of 2% isoflurane in 1.5 L/min oxygen was maintained during the short implantation procedure. Tumor cells were manually injected by boring into the calcaneus bone using a 29½ gauge needle connected to a sterile 0.3 ml insulin syringe as previously described (19). Following injection, mice were allowed to recover in cages on a heating pad. Animals showing any signs of dysfunction (e.g. problems with ambulation, lethargy or excessive bleeding) or distress where euthanized according to CO2 guidelines.
C3H mice were was placed under a clean glass cup on a wire mesh grid and allowed to acclimate for thirty minutes. Mechanical hypersensitivity was tested using a von Frey filament #3.61 (which produces a force of […]) to the plantar surface of both the left and right hind paw with enough force to cause it to bow slightly. Starting with the right hind paw, the number of positive responses out of a total of 10 applications was recorded followed by the left hind paw. Positive response was indicated by a sharp withdrawal or flinching behavior of the paw. Baseline von Frey measurements were obtained prior to treatment with CFA, tumor and saline controls. […] Subsequent measurements were taken at various time points after intrathecal (i.t.) injection of test compounds on days 3, 7, 10, 14, 17, and 21. % MPE was calculated ((Time-point value−Day# baseline)/(Day 0 baseline−day# baseline))*100 (Smeester B A, Al-Gizawiy M, & Beitz A J (2012) Evidence-Based Complementary and Alternative Medicine 2012:16). Animals with saline injection served as controls for tumor cell implantation and tumor-induced nociception. Behavioral assessments were conducted during the light cycle at approximately the same time each day. The investigator performing the von Frey testing was blinded to the animal and compound injected.
A well-established rodent hind paw model of bone cancer pain (Wacnik P W, et al., J Neurosci. 2001, 21(23), 9355-66) was to examine the effects of representative bivalent ligands on tumor-induced nociception. The inbred C3H/He line is syngeneic to the fibrosarcoma cells used in these experiments and allows these cells to grow tumors without rejection. Male C3H mice were used for all experiments. Animals were maintained on a 12 hour light/dark cycle with food and water ad libitum.
Cells were prepared for implantation by first pouring off the culture medium and washing with phosphate-buffered saline (PBS). […]

## Cc1cccc(C#Cc2cccc(OCCNC(=O)COCC(=O)NCCCCCNC(=O)COCC(=O)N[C@H]3CC[C@@]4(O)C5Cc6ccc(O)c7c6[C@@]4(CCN5C)[C@H]3O7)c2)n1 [Compound 4c, N-((4aS,7S,7aR,12bS)-4a,9-dihydroxy-3-methyl-2,3,4,4a,5,6,7,7a-octahydro-1H-4,12-methanobenzofuro[3,2-e]isoquinolin-7-yl)-2-((1-(3-((6-methylpyridin-2-yl)ethynyl)phenoxy)-4,8,16-trioxo-6-oxa-3,9,15-triazaheptadecan-17-yl)oxy)acetamide]
Control mice; control mice, i.c.v.
  agonist character: partial agonist
Control mice; controls, i.c.v., 250 pmol/mouse
  % MPE: 71 ± 10% MPE
Control mice; controls, i.t., tail flick
  ED50 (CI) i.t.: 38.70 pmol/mouse
[1]; bone cancer mice, i.t.
  Tolerance: without tolerance; also recorded: absence of tolerance
[1]; bone cancer, PID 21, 1 nmol i.t.
  duration of significant antinociception: 12 h
[1]; bone cancer, PID 21, single 10 nmol i.t.
  duration of antinociception: 24 h and > 24 h
[1]; bone cancer, day 21, i.t.
  ED50 i.t.: 0.01 fmol/mouse
[1]; bone cancer, i.t., beginning on PID 3
  antinociception in tumor-bearing mice: potent antinociception
